Data set [1] relates to A8 (β274) epothilone-selected β-tubulin mutant clone of 1A9. Description: 72 h growth inhibition assay (SRB), epothilone-selected clone A8. The format is cell-based, human. The protocol: (§1) The biological activities of the synthesized epothilones were evaluated through cytotoxicity and tubulin polymerization assays. Cytotoxicity was first evaluated in a set of ovarian carcinoma cell lines, including a parental cell line (IA9) and three drug-resistant cell lines, namely the paclitaxel-resistant cell lines (Giannakakou, P.; et al. J. Biol. Chem. 1997, 272, 17118-17125) IA9/PTX10 and IA9/PTX22 and the epothilone-resistant cell line (Giannakakou, P.; et al. Proc. Natl. Acad. Sci. USA 2000, 97, 2904-2909) 1A9/A8. These resistant cell lines harbor distinct acquired P-tubulin mutations which affect drug-tubulin interaction and result in impaired taxane and epothilone-driven tubulin polymerization. Further cytotoxicity studies were undertaken using a set of human epidermoid cancer cell lines, including a parent cell line (KB-31), and a paclitaxel-resistant (due to P-gp overexpression) cell line (KB-8511).
(§2) IC50 values for each compound are given in nM and represent the mean of 3-5 independent experiments±standard error of the mean. Relative resistance (RR) is calculated as an IC50 value for each resistant subline divided by that for the parental cell line (1A9).^b Data from reference 3. CP=cyclopropyl, CB=cyclobutyl, na=not applicable, nd=not determined, py=5-methylpyridine side chain.

Data set [2] relates to 1A9 human ovarian carcinoma cells. Description: 72 h growth inhibition assay (SRB), parental 1A9 cells. The data set is classed as cell-based. On the procedure:
as §1, §2

Data set [3] concerns tubulin. Description: In vitro tubulin polymerization, fraction of tubulin polymerized (% TP). The data set is classed as biochemical. On the procedure: (§3) The cytotoxicity analysis was supplemented with data from two independent in vitro tubulin polymerization assays. In one assay, the fraction of tubulin polymerized into microtubules upon exposure to a given concentration of the respective compound was determined (see Table 2). In the other assay, tubulin polymerization kinetics upon exposure to the respective compounds was determined using purified rat brain tubulin through measurement of the absorbance at 350 nm (see FIG. 3). For this analysis, paclitaxel, epothilone A (1) and epothilone B (2) were used as controls while compounds 9, 11 and 12 were selected for in vitro analysis.
(§4) FIG. 16 is a table of tubulin polymerization potency^a and cytotoxicity^b of epothilones 1 through 12 and paclitaxel against human epidermoid cancer cell lines.^a% TP=percent tubulin polymerized after incubation of tubulin with a known concentration of compound (typically 3 μM).^b Cytotoxicity towards human cancer cell lines as IC50 values given in nM. KB-31: epidermoid Taxol®-sensitive, KB-8511: epidermoid Taxol®-resistant (due to P-gp over expression).

Data set [4] relates to ovarian carcinoma (1A9, PTX10, PTX22, A8) and epidermoid (KB-31, KB-8511) cancer cell lines. Description: Cytotoxicity, general statements over the cell line panel. The data set is classed as cell-based, human. As to conditions: for cytotoxic activity (in words): cell line not specified or all cell lines. The protocol:
as §1, §2, §4

The subject of data set [5] is PTX10 (β270) paclitaxel-selected β-tubulin mutant clone of 1A9. Description: 72 h growth inhibition assay (SRB), paclitaxel-selected clone PTX10. The data set is classed as cell-based, human. The protocol: as §1, §2
Data set [6] relates to KB-31 human epidermoid cancer cell line (Taxol-sensitive). Description: Cytotoxicity against human epidermoid cancer cell line KB-31. The data set is classed as cell-based. As to conditions: parental sensitive KB-31 cells; 3 compared with epothilone A (1). On the procedure: as §1, §4
The subject of data set [7] is purified rat brain tubulin. The experiment in a line: Tubulin polymerization kinetics, absorbance at 350 nm. The format is biochemical. As to conditions: for in vitro tubulin polymerization activity (in words) / maximum degree of tubulin polymerization compared with epothilone A (1): A350. On the procedure:
as §3

In data set [8] the test system is PTX22 (β364) paclitaxel-selected β-tubulin mutant clone of 1A9. Description: 72 h growth inhibition assay (SRB), paclitaxel-selected clone PTX22. The format is cell-based. As to conditions: Homo sapiens, read-out: IC50 against PTX22. On the procedure:
as §1, §2

“Also recorded” adds a separate entry of the source.

For `C/C(=C\c1csc(C)n1)[C@@H]1C[C@@H]2C[C@@H]2CCC[C@H](C)[C@H](O)[C@@H](C)C(=O)C(C)(C)[C@@H](O)CC(=O)O1` [Compound 3, cyclopropyl epothilone A], the “activity against clone A8 versus parental line (in words)” value in data set [1] is reported as “lose some activity”. Besides, in data set [2] (parental sensitive 1A9 cells, 3 compared with epothilone A (1)), the “inhibition of 1A9 cell growth (in words)” value is listed as “slightly more potently”. The “tubulin polymerization promotion (in words)” value in data set [3] was “potent tubulin polymerization promoters”. Also, the “cytotoxic activity (in words)” value in data set [4] was “cytotoxic agents”. In data set [5], the “activity against clone PTX10 versus parental line (in words)” value is recorded as “lose some activity”. For the same compound, the “inhibition of KB-31 cell growth (in words)” value in data set [6] is given as “slightly more potently”.

Take `C/C(=C\c1csc(C)n1)[C@@H]1C[C@@H]2O[C@@H]2CCC[C@H](C)[C@H](O)[C@@H](C)C(=O)C(C)(C)[C@@H](O)CC(=O)O1` [Compound 1, epothilone A]: the “time to A350=0.25” value in data set [7] (polymerization kinetics) worked out at 2 min.

In the case of “15S-cyclobutyl epothilone A [Compound 4]”, the “activity against clone A8 versus parental line (in words)” value in data set [1] is reported as “lose some activity”. Also, in data set [3], the “tubulin polymerization promotion (in words)” value is reported as “potent tubulin polymerization promoters”. Also, the “cytotoxic activity (in words)” value in data set [4] is recorded as “retains good activity; also recorded: cytotoxic agents”. In data set [5], the “activity against clone PTX10 versus parental line (in words)” value was “lose some activity”.

In the case of `C/C(=C\c1ccc(C)cn1)[C@@H]1C[C@@H]2C[C@@H]2CCC[C@H](C)[C@H](O)[C@@H](C)C(=O)C(C)(C)[C@@H](O)CC(=O)O1` [Compound 9], the “activity against clone A8 versus parental line (in words)” value in data set [1] is “lose some activity”. Also, in data set [3], the “tubulin polymerization promotion (in words)” value was “potent tubulin polymerization promoters”. Moreover, the “cytotoxic activity (in words)” value in data set [4] is listed as “highly active; also recorded: increased cytotoxic activity; also recorded: cytotoxic agents”. The “factor less active than 11” value in data set [4] (cytotoxicity relative to analog 11) is reported as “three to five”. Moreover, the “activity against clone PTX10 versus parental line (in words)” value in data set [5] was “lose some activity”. Further, in data set [7], the “in vitro tubulin polymerization activity (in words)” value was “good in vitro activity” and the “maximum degree of tubulin polymerization compared with epothilone A (1)” value is listed as “smaller”.

Regarding `C/C(=C\c1ccc(C)cn1)[C@@H]1C[C@@H]2C[C@H]2CCC[C@H](C)[C@H](O)[C@@H](C)C(=O)C(C)(C)[C@@H](O)CC(=O)O1` [Compound 11, (12R, 13S, 15S)-cyclopropyl 5-methylpyridine epothilone A], the “activity against clone A8 versus parental line (in words)” value in data set [1] was “lose some activity”. The IC50 in data set [1] (Homo sapiens, 72 h, SRB, read-out: IC50 against A8) was below 10 nM; in data set [8], below 10 nM; in data set [2] (Homo sapiens, Ovarian carcinoma cell, 1A9, 72 h, SRB, read-out: IC50 in the 1A9 human ovarian carcinoma cell line), 0.6 nM; in data set [5] (Homo sapiens, 72 h, SRB, read-out: IC50 against PTX10) it was below 10 nM. Besides, the “tubulin polymerization promotion (in words)” value in data set [3] is given as “potent tubulin polymerization promoters”. The “cytotoxic activity (in words)” value in data set [4] is “outstanding activity; also recorded: increased cytotoxic activity; also recorded: cytotoxic agents”. Moreover, in data set [5], the “activity against clone PTX10 versus parental line (in words)” value was “lose some activity”. The “in vitro tubulin polymerization activity (in words)” value in data set [7] was “good in vitro activity”. In data set [7], the “maximum degree of tubulin polymerization compared with epothilone A (1)” value was “smaller”.
